Results published in patent US20040058909A1, “Method of treatment” (priority 2003, published 2004).

What was measured:
[1] = system: cynomolgus monkeys exposed to 1-methyl-4-phenyl-1,2,3,6-tetrahydropyridine (MPTP)
Method: Quetiapine may be administered to cynomolgus monkeys exposed to 1-methyl-4-phenyl-1,2,3,6-tetrahydropyridine (MPTP) and which therefore have MPTP-induced Parkinson's Disease. Such monkeys are described by Blanchet et al., Experimental Neurology, 153, 214-222 (1998).
The monkeys are assessed according to the Laval University Disability Scale for MPTP monkeys with the following motor and behavioural parameters scored: posture (normal, flexed, crouched); mobility (normal, passive); climbing (present, absent); gait (normal, abnormal); tremor (present, absent); holding food (present, absent); vocalising (present, absent); grooming (present, absent); and social interaction (present, absent).
Quetiapine may be administered at various dosage values, either alone or with varying dosages of levodopa, and scoring is carried out at regular intervals.
Quetiapine was administered subcutaneously to 8 cynomolgus monkeys at doses of 2 mg/Kg and 4 mg/Kg.

[2] = system: patients suffering from Parkinson's Disease; settings: patients with Parkinson's Disease treated for psychoses; cited from earlier work

## OCCOCCN1CCN(C2=Nc3ccccc3Sc3ccccc32)CC1 [Quetiapine, 11-(4-[2-(2-hydroxyethoxy)ethyl]-l-piperazinyl)dibenzo[b,f] [1.4]-thiazepine]
[1]; quetiapine 2 mg/Kg and 4 mg/Kg subcutaneously with levodopa
  levodopa effect on Parkinson's Disease symptoms: unchanged
[1]; quetiapine 2 mg/Kg subcutaneously, 8 cynomolgus monkeys
  reduction of levodopa-induced dyskinesias, compared with the 4 mg/Kg dose: less effective
[1]; quetiapine 4 mg/Kg subcutaneously, levodopa dose sufficient to produce maximum dyskinesias, 8 cynomolgus monkeys
  reduction of maximum levodopa-induced dyskinesias: 41%
[1]; quetiapine 4 mg/Kg subcutaneously, levodopa dose sufficient to produce moderate dyskinesias, 8 cynomolgus monkeys
  reduction of moderate levodopa-induced dyskinesias: 57%
[2]
  exacerbation of extra-pyramidal symptoms: no exacerbation of extra-pyramidal symptoms
